From PubChem BioAssay (NCI)
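Five compound concentrations were applied to cells in 96-well plates for 48 hours; endpoints were derived by simple linear interpolation of the resulting dose-response curve. Here, GI50 denotes the concentration required for 50% inhibition of growth. The concentration for full growth arrest is given as TGI.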

Assays:
Assay in all cases: growth of human tumour cells (NCI), 48 h
M14 melanoma = test system: M14 melanoma
COLO 205 colon = test system: COLO 205 colon
HS 578T breast = test system: HS 578T breast
OVCAR-4 ovarian = test system: OVCAR-4 ovarian
MDA-MB-435 = test system: MDA-MB-435
DU-145 prostate = test system: DU-145 prostate
UACC-62 melanoma = test system: UACC-62 melanoma
OVCAR-8 ovarian = test system: OVCAR-8 ovarian
OVCAR-3 ovarian = test system: OVCAR-3 ovarian
EKVX NSCLC = test system: EKVX NSCLC

Structure (SMILES)	GI50 (M14 melanoma) [µM]	TGI (M14 melanoma) [µM]	GI50 (COLO 205 colon) [µM]	TGI (COLO 205 colon) [µM]	GI50 (HS 578T breast) [µM]	TGI (HS 578T breast) [µM]	GI50 (OVCAR-4 ovarian) [µM]	TGI (OVCAR-4 ovarian) [µM]	GI50 (MDA-MB-435) [µM]	TGI (MDA-MB-435) [µM]	GI50 (DU-145 prostate) [µM]	TGI (DU-145 prostate) [µM]	GI50 (UACC-62 melanoma) [µM]	TGI (UACC-62 melanoma) [µM]	GI50 (OVCAR-8 ovarian) [µM]	TGI (OVCAR-8 ovarian) [µM]	GI50 (OVCAR-3 ovarian) [µM]	TGI (OVCAR-3 ovarian) [µM]	GI50 (EKVX NSCLC) [µM]	TGI (EKVX NSCLC) [µM]
COc1ccc2sc3cccc(NCCN(C)C)c3c(=O)c2c1	2	4.1	1.75	3.42	2.83	13.1	3.72	16.5	2.03	5.07	4.02	13.5	1.76	3.24	3.3	12.5	4.65	16.5		
CCOC(=O)c1ccc(Nc2sc(C(=O)c3ccc(Br)cc3)c(N)c2C#N)cc1	1.27	> 100	0.675	2.47	1.48	> 100		> 100	0.257	1.01	1.8	> 100	0.483	> 100	6.91	> 100	0.364	2.19		
COc1cc(/C=C2\C[C@H]3[C@@H]4CC=C5C[C@@H](O)CC[C@]5(C)[C@H]4CC[C@]3(C)[C@H]2O)ccc1OCCN1CCCC1	8.16	18.3	12.9	> 50	11.1	25.1			10.7	28.2	5.04	14.4	8.9	16.9	13.5	27.2	15.4	32	0.104	7.38
CO/C=C/C(=O)c1cc2cnc3c(=N)cc(NC(=O)C(C)C)c([nH]1)c23	0.0703	0.529	0.135	0.869	0.0195	0.188	0.0637	0.746	0.0852	0.836	0.0864	6.35	0.0408	0.185	0.113	1.02	0.0418	0.353		
Cn1cc(C2=C(c3ccccc3[N+](=O)[O-])C(=O)NC2=O)c2ccccc21	6.32	> 20.9	2.79	6.38	0.975	> 16.9	4.88	24.5	4.82	> 25	6.13	> 25	3.68	12.1	6.07	> 25	2.32	> 21.8		
COC1=CC(c2ccc[nH]2)=N/C1=C\c1[nH]c(C)c(CC(=O)OCc2ccccc2)c1CCC(=O)OCc1ccccc1	0.223	0.573	0.26	1.2	0.395	2.87	0.358	17.6	0.412	1.64	0.438	12.1			0.32	1.36	0.363	1.46	0.349	4.13
Nc1cc(F)ccc1CC(=O)O		> 100		> 100		> 100				> 100		> 100		> 100		> 100				> 100
C[C@]12CC[C@@H]3c4cc(OC(F)F)c(O)cc4CC[C@H]3[C@@H]1CC[C@@H]2OS(N)(=O)=O	0.511	25.9	1.1	> 40	0.475	48.8	15.8	97.6			1.55	> 100	0.403	18.2	1.55	68.1	0.365	16.6	1.51	> 100
Nc1c(C(=O)c2ccc(-c3cccnc3)cc2)cnn1-c1ccc(F)cc1	> 25	> 25	> 21.9	> 25	> 25	> 25	8.41	> 24	> 25	> 25	> 25	> 25	> 21.1	> 25	> 17.5	> 25	> 22.8	> 25		
C[n+]1c(/C=C/c2c[nH]c3ccccc23)ccc2ccccc21	14	33.2	5.44	22.2	13.2	33.3	7.07	37.1	7.95	20.6	10.1	22.7	7.31	21.1	4.24	28.9	7.07	26.7		
